According to patent US20050148034A1, “Methods for identification of modulators of angiogenesis, compounds discovered thereby, and methods of treatment using the compounds” (priority 2002, published 2005):
Where two headings read alike, the source gives them in different places.

Columns and labels:
[1] = system: human umbilical cord blood vessel rings; conditions: 10^−5 M, compared with the DMSO (0.5%) diluent control; cited from earlier work
[2] = system: human umbilical cord blood vessel rings; assay: Umbilical cord blood vessel ring angiogenesis assay (validation with known modulators); format: cell-based
Protocol: Blood vessels, approximately 1-2 mm in diameter and 1-2 cm in length, were excised from human umbilical cord within 12 hours of birth. Both arterial and venous tissue were harvested and maintained separately. The vessels were placed in DMEM containing 2.5 μg/ml of fungizone and cut into 1-2 mm length fragments using fine dissecting forceps and iridectomy scissors. Vessel fragments were freed of residual clots and soaked in DMEM before use. Dissecting and sectioning of vessels were performed with the aid of a surgical microscope. Similar angiogenic responses were obtained from blood vessels of venular and arterial origin but for each assay, vessel fragments from only one vessel were used. See FIG. 6 for a graphic depiction of the assay setu.
Assays were performed in petri dishes (10 to 25 cm^2) or 6-well culture plates (Costar, Cambridge, Mass.), which were prepared by pre-coating with either 0.1% gelatin (Sigma, St. Louis, Mo.) or MATRIGEL® (BD Biosciences) to form a matrix. Following the coating of the plates, 50 μl of human cord blood plasma in 5 mL of DMEM were added to each dish/well to form a surface film over the matrix. The film was allowed to set at 37° C. for 90 minutes, after which it was removed, leaving a thin film in each dish/well. Vessel ring segments were then positioned at central locations within the plate or dish. Petri dishes were divided into quarters, and vessel ring segments were placed in the center of each of the quadrants. In the case of 6-well culture plates, a vessel ring segment was placed in each of the wells. Vessel ring segments generally adhered to the coated matrix within 12 hours, allowing for the addition of media without risk of detachment due to buoyancy. […]
Test compounds were administered at the beginning of culture, once the adherent stem cells were selected, or once the vessel rings are determined to have adhered to the matrix. Each test compound is evaluated at various concentrations to enable generation of a dose response analysis. […]
Vessel outgrowth was scored as a quantitative comparison to the positive and negative controls, using the following notations: − negative; +/− minimally above negative control; + low level of outgrowth; ++ moderate level of outgrowth; +++ high level of outgrowth; ++++ positive control level of outgrowth. Vessel outgrowth was also scored morphometrically as the maximal distance of vessel sprout growth in microns from the vessel ring, and as the total area of endothelial cell coverage (ECA)/area of vessel ring (VRA).
Following culture for 14-21 days, as described above, angiogenesis was quantified and compared with control cultures. […]

[3] = system: embryonic-like stem cells derived from placenta; assay: Marker expression of cultured embryonic-like stem cells (staining score, Table 2); format: cell-based, human; parameters: key to SMC-specific Myosin HC / GFAP / CD34+ / CD45+: −: no staining; +/−: <20% staining; +: 20-50% staining; ++: 50-75% staining; +++: >75% staining; conditions: for CD34+ / CD45+ / GFAP / Nestin / SMC-specific Myosin HC: placental conditioned media, fourteen days of culture; for numbers of cells expressing CD34, CD45 and smooth muscle cell (SMC)-specific myosin heavy chain / numbers of cells expressing nestin and glial fibrillary acidic protein (GFAP): summary of Table 2
Protocol: The following experiments evaluated the effects of Thalomid™, Actimid™ and Revimid™ on the morphological differentiation of embryonic-like stem cells derived from placenta. The morphological differentiation of cultured embryonic-like stem cells was evaluated after fourteen days of culture in the presence of placental conditioned medium and with DMSO (control), EGCF, Thalomid™, Actimid™ or Revimid™.
Embryonic-like stem cells were isolated from placenta as described above in Section 5.4. The embryonic-like stem cells were cultured using the culture conditions described above.
(§1) The cells were scored for the expression of CD34 (a marker of early hematopoietic progenitor cells; also an endothelial cell marker), CD45 (a marker of all hematopoietic cells except erythrocytes), CD105 (a marker of proliferating endothelial cells), smooth muscle cell (SMC)-specific myosin heavy chain, nestin ([…]), and glial fibrillary acidic protein (GFAP). Ratios of CD34 cells/TNC (Total Number of Cells), CD45 cells/TNC and CD105 cells/TNC were also determined.
In Table 2, the scoring was as follows: • −: no staining; +/−: <20% staining+: 20-50% staining; ++: 50-75% staining; +++: >75% staining.

[4] = system: embryonic-like stem cells derived from placenta; assay: Immunostaining for CD34, CD45 and CD105 in cultured placental stem cells (ratios to TNC, Table 3); format: cell-based, human; conditions: for CD34/TNC / CD45/TNC / CD105/TNC: placental conditioned media, 1 μg/ml, 14 days in culture; for numbers of cells expressing CD34, CD45 and CD 105: summary of Table 3
Protocol: as §1
In another experiment, the results of which are summarized in Table 3, embryonic-like stem cells derived from placenta were cultured, using the conditions described in the umbilical vessel ring assay described above, in the presence of placenta-conditioned medium with DMSO (negative control), Thalomid™, Actimid™ or Revimid™. After 14 days in culture, the cells were then immunostained for expression of CD34+, CD45+ and CD 105+.

[5] = system: embryonic-like stem cells derived from placenta; assay: Total vessel area/field and branching/bifurcation of cultured placental embryonic-like stem cells (Table 4); format: cell-based, human; parameters: key to Branching/Bifurcation (+/−): +: a branch or bifurcation was observed; −: no branch or bifurcation was observed; conditions: for branching and/or bifurcation exhibited by the cells / total vessel area/field covered by the cells: summary of Table 4
Protocol: In another experiment, the results of which are summarized in Table 4, embryonic-like stem cells derived from placenta were cultured, using the culture conditions described above, and in the presence of EGCF, DMSO, Thalomid™, Actimid™ or Revimid™.
A “+” means that a branch or bifurcation was observed and a “−” means that no branch or bifurcation was observed. […] See also FIGS. 3A, 3B

rat aortic rings = assay: Rat aortic angiogenesis assay; format: cell-based, Sprague Dawley rats; conditions: for mean microvessel growth (% of control): without microsomes
Protocol: Twelve well tissue culture grade plates were covered with 250 μl of Matrigel and allowed to gel for 30-45 min at 370 C, 5% Co2. Thoracic aortas were excised from eight to ten week old male Sprague Dawley rats and the fibroadipose tissue was removed. The aortas were sectioned into 1 mm long sections, rinsed eight times with EGM-2 (Clonetics Corp), placed on the Matrigel coated wells, covered with additional 250 μl Matrigel, and allowed to gel for 30-45 min at 370 C. The rings were cultured for 24 hours in 2 ml of EGM-2. After 24 hours, recombinant murine endostatin was reconstituted in EBM and added as a single treatment on day 1. Thalidomide was added at different concentrations (1 μg/ml, 5 μg/ml, 10 μg/ml, 50 μg/ml and 100 μg/ml) in the presence or absence of rabbit microsomes as noted in the Table 5. Aortic rings were photographed on days.

[6] = system: human umbilical cord vessel rings; assay: Human angiogenesis assay (umbilical artery vessel rings in Matrigel); format: cell-based; conditions: for Microvessel Growth (% Inhibition): vs 0.1% DMSO, three weeks, average of two rings
Excerpt: Fresh human umbilical cords were collected by trained medical personnel under fill donor informed consent from local hospitals. The cords were transported and treated within three hours. Umbilical cords and vessel lumens were rinsed with chilled basal nutrient medium. The artery was removed from the cord using mechanical means, forceps and small surgical scissors in an aseptic field. The vessel was cleaned of connective tissue and vessel rings were cut cross-wise in a length of 1 mm. The rings were placed into EGM-2 medium (Clonetics Corp.) in a 50 ml conical bottom tube and stored at 4° C. Six-well tissue culture plates were covered with […] of Matrigel and allowed to gel for 30-45 min at 37° C., under 5% CO2. The vessel rings were rinsed in EGM-2 medium and placed on the Matrigel-coated wells, covered with additional 250 μl Matrigel, and allowed to gel for 30-45 min at 37° C. (see FIG. 6). The vessels were cultured for 24 hours in 4 ml of EGM-2 to allow the tissue to adapt to its new environment. After 24 hours incubation, the rings were treated either with 0.1% DMSO as control, or different concentrations of compounds (thalidomide or CC4047). Culture medium was changed twice per week for total of three weeks.
The effects of compounds on cultured vessel rings were compared with the effect of DMSO on vessel rings. The results were analyzed using Image-Pro® Plus software (MediaCybernetics, Inc. Carlsbad, Calif.).
These experiments were done in duplicates and the results are the average of two rings in same experiment. A different concentration of Fumagillin is used as positive control in this experiment.

Compound	inhibition of angiogenesis ([2]; 100 μg/ml)	CD34+ ([3]; 1 μg/mL)	CD45+ ([3]; 1 μg/mL)	GFAP ([3]; 1 μg/mL)	Nestin ([3]; 1 μg/mL)	SMC-specific Myosin HC ([3]; 1 μg/mL)	CD34+ ([3]; 10 μg/mL)	CD45+ ([3]; 10 μg/mL)	GFAP ([3]; 10 μg/mL)	Nestin ([3]; 10 μg/mL)	SMC-specific Myosin HC ([3]; 10 μg/mL)	numbers of cells expressing CD34, CD45 and smooth muscle cell (SMC)-specific myosin heavy chain [3]	numbers of cells expressing nestin and glial fibrillary acidic protein (GFAP) [3]	CD34/TNC [4]	CD45/TNC [4]	CD105/TNC [4]	numbers of cells expressing CD34, CD45 and CD 105 [4]	Branching/Bifurcation (+/−) ([5]; 1 μg/ml)	Total Vessel Area/Field (% Coverage) ([5]; 1 μg/ml)	Branching/Bifurcation (+/−) ([5]; 10 μg/ml)	other results
C[C@]12CCC(=O)C=C1CC[C@@H]1[C@@H]2[C@@H](O)C[C@@]2(C)[C@H]1CC[C@]2(O)C(=O)CO [hydrocortisone]																					inhibition of angiogenesis [1]: partially inhibited angiogenesis
Cc1ccc(C(=O)Nc2ccc(S(=O)(=O)O)c3cc(S(=O)(=O)O)cc(S(=O)(=O)O)c23)cc1NC(=O)c1cccc(NC(=O)Nc2cccc(C(=O)Nc3cc(C(=O)Nc4ccc(S(=O)(=O)O)c5cc(S(=O)(=O)O)cc(S(=O)(=O)O)c45)ccc3C)c2)c1 [suramin]	virtually totally inhibited angiogenesis																				inhibition of angiogenesis ([2]; 10 μg/ml): the inhibitory activity of this compound is lost
heparin	small but significant inhibition of angiogenesis																				
Nc1cccc2c1C(=O)N(C1CCC(=O)NC1=O)C2=O (centres unmarked) [Actimid, 4-(Amino)-2-(2,6-dioxo(3-piperidyl))-isoindoline-1,3-dione]		−	−	−	++ (50-75% staining)	−	−	−	+ (20-50% staining)	+++ (>75% staining)	−	decreased	increased	0.04	0.94	26.3	decrease	−	11.3 +/− 2.8 % Coverage	−	Total Vessel Area/Field (% Coverage) ([5]; 10 μg/ml): 6.7 +/− 4.1 % Coverage; branching and/or bifurcation exhibited by the cells [5]: decreases the branching and/or bifurcation exhibited by the cells; total vessel area/field covered by the cells [5]: decrease in the total vessel area/field covered by the cells; mean microvessel growth (% of control) (rat aortic rings; 10 μg/ml): 14.2 % of control; mean microvessel growth (% of control) (rat aortic rings; 100 μg/ml): 0.00 % of control; need of rabbit microsomes for inhibition of vessel formation (rat aortic rings; summary of Table 5): did not require microsomes for inhibition of vessel formation; Microvessel Growth (% Inhibition) ([6]; 0..1 μM): 50.1 % Inhibition; Microvessel Growth (% Inhibition) ([6]; 1 μM): 85 % Inhibition; Microvessel Growth (% Inhibition) ([6]; 10 μM): 100 % Inhibition; formation of microvessel outgrowth ([6]; compared with DMSO treated samples): inhibited the formation of microvessel outgrowth in a dose dependent manner
Nc1cccc2c1CN(C1CCC(=O)NC1=O)C2=O (centres unmarked) [Revimid, 3-(4-amino-1-oxo-1,3-dihydro-isoindol-2-yl)-piperidine-2,6-dione]		−	−	+ (20-50% staining)	+ (20-50% staining)	−	−	−	+++ (>75% staining)	++ (50-75% staining)	−	decreased	increased	.22	1.71	17.3	decrease	−	13.5 +/− 7.7 % Coverage	−	Total Vessel Area/Field (% Coverage) ([5]; 10 μg/ml): 12.1 +/− 7.4 % Coverage; branching and/or bifurcation exhibited by the cells [5]: decreases the branching and/or bifurcation exhibited by the cells; total vessel area/field covered by the cells [5]: decrease in the total vessel area/field covered by the cells
low molecular weight heparin	small but significant inhibition of angiogenesis																				
